Source: patent US20150182597A1, “COMPOSITIONS COMPRISING HYALURONIC ACID AND DERMATAN SULPHATE FOR THE TREATMENT OF BEING OVERWEIGHT AND OBESITY” (BIOIBERICA, S.A., priority 2012, published 2015)

Tests used:
[1] = test system: mouse embryonic fibroblasts (MEFs); experiment: Spontaneous adipogenesis of MEFs in growth medium: lipid accumulation under phase contrast microscopy; format: cell-based; details: day 8 of culture in growth medium, HA 80 μg/mL, DS 20 μg/mL, HA8O+DS20 100 μg/mL
Description: MEFs obtained from embryos of 13 days gestational age were cultured in monolayer in growth medium consisting of […] (Invitrogen, Carlsbad, Calif., USA) basal medium supplemented with […] supplement (7.5%), foetal bovine serum (7.5%) and antibiotics, in 12-well culture plates of 1 mL capacity/well, following a previously described protocol (J. B. Hansen et al., Proc. Natl. Acad. Sci. USA 101, 4112-4117 (2004)). Two days after reaching confluence, which is considered day 0 of culture, the cells were exposed to: carrier (water); hyaluronic acid (HA) at a final concentration (f.c.) of 80 μg/mL; dermatan sulphate (DS) at an f.c. of 20 μg/mL; chondroitin sulphate (CS) at an f.c. of 20 μg/mL; or composition of the present invention HA8O+DS20 at an f.c. of 100 μg/mL, containing 80 μg of HA and 20 μg of DS per mL. […] The mRNA levels of the genes related to adipocyte differentiation PPARgamma, C/EBPalpha and fatty acid synthase (FAS) were determined by real-time PCR from the total RNA extracted from the cells with Trizol reagent and reverse-transcribed with reverse transcriptase, and using the mRNA of beta-actin as an internal control. […] The statistical significance of differences with respect to treatment with the carrier was analyzed by means of Student's t-test. […]

[2] = test system: resistin; experiment: Resistin gene expression in MEF-derived adipocytes; format: cell-based, mouse; details: 8 days of MEF adipocyte differentiation in adipogenic medium; compositions at f.c. 20, 100, 200 μg/mL; HA 80, DS 20 μg/mL
Description: MEFs obtained from embryos of 13 days gestational age were cultured in monolayer in growth medium consisting of […] (Invitrogen, Carlsbad, Calif., USA) basal medium supplemented with […] supplement (7.5%), foetal bovine serum (7.5%) and antibiotics, in 12-well culture plates of 1 mL capacity/well, following a previously described protocol (J. B. Hansen et al., Proc. Natl. Acad. Sci. USA 101, 4112-4117 (2004)). […] The mRNA levels of the genes related to adipocyte differentiation PPARgamma, C/EBPalpha and fatty acid synthase (FAS) were determined by real-time PCR from the total RNA extracted from the cells with Trizol reagent and reverse-transcribed with reverse transcriptase, and using the mRNA of beta-actin as an internal control. […] The statistical significance of differences with respect to treatment with the carrier was analyzed by means of Student's t-test. […] The mRNA levels of selected genes were determined by real-time PCR, as described in Example 1. […] Expression levels of the resistin gene were determined by real-time PCR, as described in Example 1.

Row | Substance | clusters of cells spontaneously differentiated into adipocytes filled with fat droplets [1] | expression of resistin [2]
1 | dermatan sulphate [DS20] | presence of a number of clusters of cells spontaneously differentiated into adipocytes filled with fat droplets | not reproduced
2 | hyaluronic acid [HA80] | presence of a number of clusters of cells spontaneously differentiated into adipocytes filled with fat droplets | not reproduced
